# Molecular target: human IKCa1 channel (Homo sapiens, UniProt O15554)
# Experiment: cell-based
# Settings: not given
# Method: COS-7 cells, maintained in Dulbecco's modified Eagle's medium (DMEM) containing 10% heat-inactivated fetal calf serum, 4 mM L-glutamine and 1 mM Na^+ pyruvate, were transiently transfected with hlKCa1.
# Electrophysiological experiments were carried out in the whole-cell configuration of the patch-clamp technique using an EPC-9 amplifier (HEKA Elektronik, Lambrecht Germany) interfaced to a computer running acquisition and analysis software (Pulse and Pulsfit; HEKA Elektronik). Pipettes were pulled from soft glass capillaries, coated with Sylgard (Dow-Corning, Midland, Mich.), and fire polished to resistances of 2.0–4.5 MΩ measured in the bath. COS-7 cells were trypsinized and plated on glass coverslips 3 h before measurement. […] To prevent activation of the native chloride channels in COS-7 cells an aspartate Ringer solution was used as an external solution (160 mM Na^+ aspartate, 4.5 mM KCl, 2 mM CaCl2, 1 mM MgCl2, 5 mM HEPES, adjusted to pH 7.4 with NaOH, with an osmolarity of 290–310 mosM). 200 ms voltage ramps from −120 mV to 40 mV every 10 s were used. The holding potential in all experiments was −80 mV. Series resistance compensation was not employed. The reduction of slope conductance at −80 mV was used to determine the Kd-value by fitting the values to the Hill equation with a Hill coefficient of unity.
# human IKCa1 channel, sequence (O15554 whole entry): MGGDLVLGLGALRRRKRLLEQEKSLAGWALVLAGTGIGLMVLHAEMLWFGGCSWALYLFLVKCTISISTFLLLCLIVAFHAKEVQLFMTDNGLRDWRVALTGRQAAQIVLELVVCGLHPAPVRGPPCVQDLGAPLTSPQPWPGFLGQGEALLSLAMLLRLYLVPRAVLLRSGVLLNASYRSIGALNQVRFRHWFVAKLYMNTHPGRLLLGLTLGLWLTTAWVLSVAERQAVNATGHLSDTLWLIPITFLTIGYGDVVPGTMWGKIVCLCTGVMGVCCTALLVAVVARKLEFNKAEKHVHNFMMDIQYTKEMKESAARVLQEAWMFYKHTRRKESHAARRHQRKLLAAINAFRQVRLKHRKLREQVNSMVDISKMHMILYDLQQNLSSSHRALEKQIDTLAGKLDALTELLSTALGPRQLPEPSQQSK
row,Kd [nM],Compound
1,35000,"FC(F)(F)c1ccc(C(Nc2nccs2)(c2ccccc2)c2ccccc2)cc1 [Compound T61, N-Diphenyl[4-(trifluoromethyl)phenyl]-methyl-N-(1,3-thiazol-2-yl)amine]"
2,15000,"FC(F)(F)c1ccccc1C(Nc1ncccn1)(c1ccccc1)c1ccccc1 [Compound T73, N-Diphenyl[2-(trifluoromethyl)phenyl]-methyl-N-(2-pyrimidinyl)amine]"
3,750,"N#CC(c1ccccc1)(c1ccccc1)c1ccc(Cl)cc1 [Compound T26, 2-(4-Chlorophenyl)-2,2-diphenylacetonitrile]"
4,10000,"COc1ccc(C(O)(c2ccc(OC)cc2)c2ccc(OC)cc2)cc1 [Compound T16, Tris-(4-methoxyphenyl) methanol]"
5,1100,"c1ccc(C(c2ccccc2)(c2cccs2)n2cccn2)cc1 [Compound T38, 1-[Diphenyl(2-thienyl)methyl]-1H-pyrazole]"
6,700,"OC(c1ccccc1)(c1ccccc1)c1ccccc1C(F)(F)F [Compound T54, Diphenyl(2-trifluoromethylphenyl) methanol]"
7,800,"OC(c1ccccc1)(c1ccc(F)cc1)c1cccs1 (centres unmarked) [Compound T14, (4-Fluorophenyl)(2-thienyl)phenyl methanol]"
8,90,"Clc1ccc(C(c2ccccc2)(c2ccccc2)n2cccn2)cc1 [Compound T13, 1[(4-Chlorophenyl)diphenylmethyl]-1H-pyrazole]"
9,10000,"COc1ccc(C(O)(c2ccccc2)c2ccc(OC)cc2)cc1 [Compound T15, Bis-(4-methoxyphenyl)phenyl methanol]"
10,200,"Fc1ccc(C(c2ccccc2)(c2ccccc2)n2cccn2)cc1 [Compound T28, 1-[(4-Fluorophenyl)diphenylmethyl]-1H-pyrazole]"
11,1500,"FC(F)(F)c1ccc(C(c2ccccc2)(c2ccccc2)n2cccn2)cc1 [Compound T60, 1-{Diphenyl[4-(trifluoromethyl)-phenyl]methyl}-1H-pyrazole]"
12,1100,"Cc1ccn(C(c2ccccc2)(c2ccccc2)c2ccccc2Cl)n1 [Compound T63, 1-[(2-Chlorophenyl)diphenylmethyl]-3-methyl-1H-pyrazole]"
13,750,"OC(c1ccccc1)(c1cccs1)c1ccccc1Cl (centres unmarked) [Compound T43, (2-Chlorophenyl)(2-thienyl)phenyl methanol]"
14,15000,"O=[N+]([O-])c1ccc(S(=O)(=O)c2cnc(NC(c3ccccc3)(c3ccccc3)c3ccccc3Cl)s2)cc1 [Compound T81, N-{5-[(4-Nitrophenyl)sulfonyl]-1,3-thiazol-2yl}-N[(2-chlorophenyl)-(diphenyl)-methyl]amine]"
15,1000,"c1ccc(C(c2ccccc2)(c2cccs2)n2ccnc2)cc1 [Compound T37, 1-[Diphenyl(2-thienyl)methyl]-1H-imidazole]"
16,40,"Fc1ccccc1C(c1ccccc1)(c1ccccc1)n1cccn1 [Compound T46, 1-[(2-Fluorophenyl)diphenylmethyl]-1H-pyrazole]"
17,2000,"FC(F)(F)c1ccn(C(c2ccccc2)(c2ccccc2)c2ccccc2Cl)n1 [Compound T65, 1-[(2-Chlorophenyl)diphenylmethyl]-3-(trifluorormethyl)-1H-pyrazole]"
18,12000,"Fc1ccccc1C(Nc1nccs1)(c1ccccc1)c1ccccc1 [Compound T78, N-[(2-Fluorophenyl)diphenylmethyl]-N-(1,3-thiazol-2yl)amine]"
19,12000,"Cc1cc(C)n(C(c2ccccc2)(c2ccccc2)c2ccccc2Cl)n1 [Compound T62, 1-[(2-Chlorophenyl)diphenylmethyl]-3,5-dimethyl-1H-pyrazole]"
20,25000,"FC(F)(F)c1ccccc1C(Nc1nccs1)(c1ccccc1)c1ccccc1 [Compound T72, N-Diphenyl[2-(trifluoromethyl)phenyl]-methyl-N-(1,3-thiazol-2yl)amine]"
21,900,"Clc1ccccc1C(Nc1ncccn1)(c1ccccc1)c1ccccc1 [Compound T68, N-[(2-Chlorophenyl)diphenylmethyl]-N-(2-pyrimidyl)amine]"
22,25000,"FC(F)(F)c1ccn(C(c2ccccc2)(c2ccccc2)c2ccccc2C(F)(F)F)n1 [Compound T59, 1-{Diphenyl[2-(trifluoromethyl)-phenyl]methyl}-3-(trifluoromethyl)-1H-pyrazole]"
23,11000,"Clc1ccc(C(Nc2ccncc2)(c2ccccc2)c2ccccc2)cc1 [Compound T70, N-[(4-Chlorophenyl)diphenylmethyl]-N-(4-pyridyl)amine]"
24,20000,"Clc1ccc(C(Nc2nccs2)(c2ccccc2)c2ccccc2)cc1 [Compound T64, N-[(4-Chlorophenyl)diphenylmethyl]-N-(1,3-thiazol-2yl)amine]"
25,820,"OC(c1ccccc1)(c1ccccc1)c1ccc(C(F)(F)F)cc1 [Compound T55, Diphenyl(4-trifluoromethylphenyl) methanol]"
26,650,"OC(c1ccccc1)(c1ccccc1)c1cccc(C(F)(F)F)c1 [Compound T56, Diphenyl(3-trifluoromethylphenyl) methanol]"
27,8000,"Cc1csc(NC(c2ccccc2)(c2ccccc2)c2ccccc2Cl)n1 [Compound T79, N-[(2-Chlorophenyl)diphenylmethyl]-N-(4-methyl-1,3-thiazol-2yl)amine]"

# Same assay, conditions: hIKCa1 in COS-7 cells; reduction of slope conductance at −80 mV; 1 μM free Ca++ in pipette
row,Kd for block of IKCa1,Compound
1,No effect at 10 μM,"O=C1c2ccccc2C(=O)N1C(c1ccccc1)(c1ccccc1)c1ccccc1Cl [Compound T71, 2-[(2-Chlorophenyl)diphenylmethyl]-1H-isoindole-1,3(2H)-dione]"
2,No effect at 1 μM,"COc1ccc(C(c2ccc(OC)cc2)(c2ccc(OC)cc2)n2cccn2)cc1 [Compound T19, 1-[Tris(4-methoxyphenyl)methyl]-1H-pyrazole]"
3,No effect at 10 μM,C[n+]1ccc(C(O)(c2ccccc2)c2ccccc2)cc1 [Compound T8]
4,No effect at 1 μM,"OC(c1ccccc1)(c1cccc(Cl)c1)c1cccc(Cl)c1 [Compound T5, Bis-(3-chlorophenyl)phenyl methanol]"
5,No effect at 1 μM,"Clc1ccccc1C(c1ccccc1)(c1ccccc1)n1cnc2ccccc21 [Compound T85, 1-[(2-Chlorophenyl)diphenylmethyl]-1H-1,3-benzimidazole]"
6,No effect at 1 μM,c1ccc(C(NCCN(CCNC(c2ccccc2)(c2ccccc2)c2ccccc2)CCNC(c2ccccc2)(c2ccccc2)c2ccccc2)(c2ccccc2)c2ccccc2)cc1 [Compound T20]

# Same assay, conditions: read-out: Kd for block of IKCa1; hIKCa1 in COS-7 cells; reduction of slope conductance at −80 mV; 1 μM free Ca++ in pipette
row,Kd [nM],Compound
1,10000,C[n+]1ccn(C(c2ccccc2)(c2ccccc2)c2ccccc2Cl)c1 [Compound T30]
2,40000,COc1ccc(C(C#N)(c2ccc(OC)cc2)c2ccc(OC)cc2)cc1 [Compound T18]
3,2000,"NC(c1ccccc1)(c1ccccc1)c1ccccc1F [Compound T47, (2-Fluorophenyl)diphenylmethyl amine]"
4,35000,COc1ccc(C(C#N)(c2ccccc2)c2ccc(OC)cc2)cc1 [Compound T17]
5,2500,"NC(c1ccccc1)(c1ccccc1)c1ccccc1C(F)(F)F [Compound T82, (2-Trifluoromethylphenyl)-diphenylmethyl amine]"
6,1500,c1ccc(C(c2ccccc2)(c2ccccc2)n2ccnc2)cc1 [Compound T86]
7,5000,"NC(c1ccccc1)(c1ccccc1)c1ccc(F)cc1 [Compound T42, (4-Fluorophenyl)diphenylmethyl amine]"

# Same assay, conditions: refers to TABLE 8
row,Compound,IKCa1 inhibition compared with clotrimazole
1,"Fc1ccccc1C(c1ccccc1)(c1ccccc1)n1cccn1 [Compound T46, 1-[(2-Fluorophenyl)diphenylmethyl]-1H-pyrazole]",more potent inhibitors of IKCa1 channels than clotrimazole

# — patent publication US7235577B1 (priority 2000, dated 2007)
